{"source": "patent US20250288587A1", "about": "“Methods of Treating Fibrosis” (Athira Pharma, Inc., priority 2022, published 2025)", "key": {"CFA-stimulated rats [1]": {"test_system": "CFA-stimulated rats", "assay": "CFA inflammatory pain model, cytokine expression in paw skin", "format": "in vivo", "set-up": "key to IFN-γ expression in paw skin, change compared to CFA alone / IL-4 expression in paw skin, change compared to CFA alone / TNF-α expression in paw skin, change compared to CFA alone: NS = no statistically significant change in expression compared to CFA alone; + = statistically significant change in expression compared to CFA alone, p < 0.05", "details": "for IFN-γ expression in paw skin, change compared to CFA alone / IL-4 expression in paw skin, change compared to CFA alone / TNF-α expression in paw skin, change compared to CFA alone: day 8", "method": "(§1) Response to peripheral inflammatory stimulus can be modeled by administering complete Freund's adjuvant (CFA), a suspension of desiccated mycobacterium in paraffin oil and mannide monooleate, by subcutaneous injection into the rat's footpad. The introduction of CFA to peripheral tissues leads to a rapid, sustained, inflammatory reaction in the treated tissue within 24 hours. Subcutaneous administration of CFA in the plantar region of the paw induces inflammatory pain behaviors that persist for at least 8 days. CFA treatment also leads to the accumulation of inflammatory cytokines in paw tissue at the site of injury, which, if unresolved, can lead to formation of fibrotic tissue. The extent of inflammatory response to CFA can be assessed by quantification of inflammatory cytokines in paw skin lysate, and inflammatory pain behaviors by mechanical allodynia (von Frey test) and thermal hyperalgesia (Hargreaves test).\n(§2) In another study, Compounds 1a, 5a, and 6a were similarly tested against CFA-induced inflammatory stimulation in the right hind foot for their ability to reduce pain behaviors. This study also included quantification of inflammatory cytokine expression in paw skin lysate. Inflammatory pain stimulation with CFA injection and assessment of mechanical and thermal pain behaviors were performed as described above, with the exception that only post-dose pain behavior testing is reported.\n(§3) Intraplantar CFA injection occurred at day 0. Treatment with Compounds 1a, 5a, and 6a occurred at days −2, 1, 3, and 7. At day 8, the rats were terminated and cytokine levels were measured in paw skin and plasma. Tissue from paw bone, joint, and muscle were obtained for H&E staining and analysis. Cytokine levels in test compound-treated animals were compared to CFA-stimulated animals. Analytes included interleukin 4 (IL-4), tumor necrosis factor alpha (TNF-α) and interferon gamma (IFN-γ). Statistical analysis consisted of 1-way ANOVA followed by Dunnett's multiple comparisons post-test. Mechanical allodynia and thermal hyperalgesia were tested 1 hour post-dosing on days 1, 3, and 7. PWT refers to […] paw withdrawal threshold where a higher value corresponds to a higher pain threshold. PWL refers to […] paw withdrawal latency where a higher value corresponds to a higher pain threshold."}, "CFA-stimulated rats [2]": {"test_system": "CFA-stimulated rats", "assay": "CFA inflammatory pain model, thermal hyperalgesia (Hargreaves method)", "format": "in vivo", "set-up": "key to Thermal Hyperalgesia, change in sensitivity compared to CFA alone / Thermal Hyperalgesia, significant reduction in pain behavior vs CFA alone: NS = no statistically significant change in sensitivity compared to CFA alone; + = statistically significant change in sensitivity compared to CFA alone, p < 0.05", "method": "as §1\n(§4) In one study, Compound 2a was tested for its ability to reduce inflammatory pain behaviors in the CFA inflammation model. On study day 0, […] of CFA was administered subcutaneously in the plantar of the right hind paw. Animals were treated daily with Compound 2a in solution via oral gavage (PO) at doses of 1, 0.1, and 0.025 mg/kg. Treatment began before CFA injection on study day −1 and continued through study day 8.\nThermal hyperalgesia was measured using the Hargreaves method. A temperature ramp was applied to the right hind paw and the paw withdrawal latency (PWL) was recorded as a measure of sensitivity to thermal stimulation. […] Statistical analysis was performed using a 1-way ANOVA with Tukey post-test. A p-value below 0.05 was considered statistically significant.\nas §2, §3"}, "CFA-stimulated rats [3]": {"test_system": "CFA-stimulated rats", "assay": "CFA inflammatory pain model, mechanical allodynia (von Frey test)", "format": "in vivo", "set-up": "key to Mechanical Allodynia, change in sensitivity compared to CFA alone / Mechanical Allodynia, significant reduction in pain behavior vs CFA alone: NS = no statistically significant change in sensitivity compared to CFA alone; + = statistically significant change in sensitivity compared to CFA alone, p < 0.05", "method": "as §1, §4\nMechanical allodynia was measured using the von Frey test. In this test, rats were placed on a wire mesh and a series of filaments designed to deliver probing force ranging from 4 to 26 grams were applied to the mid-plantar surface of the right hind paw. Animals indicated pain response by lifting the probed paw. The minimal force required to elicit the withdrawal response was recorded as the paw withdrawal threshold (PWT). Von Frey testing was performed 1 hour after Compound 2a dosing on study day 1, 3, and 7, and was also tested pre-dosing on day 7. Statistical analysis was performed using a 1-way ANOVA with Tukey post-test. A p-value below 0.05 was considered statistically significant. Control animals stimulated with CFA but treated with only vehicle had high sensitivity to mechanical stimulation compared to normal control animals.\nas §2, §3"}, "CFA-stimulated rats [4]": {"test_system": "CFA-stimulated rats", "assay": "CFA inflammatory pain model, thermal hyperalgesia (Hargreaves method)", "format": "in vivo", "details": "Day 5, 1 hour pre-dosing; data not shown"}, "[5]": {"test_system": "THP-1-differentiated macrophages", "assay": "Pro-inflammatory cytokine expression in LPS-challenged THP-1-differentiated macrophages", "format": "cell-based, human", "set-up": "key to IL-6, significant reduction in culture supernatant vs LPS treatment / TNF-α, significant reduction in culture supernatant vs LPS treatment / IL-1β, significant reduction in culture supernatant vs LPS treatment: “NS” indicates a non-significant reduction in the indicated cytokine; “+” indicates a p value <0.05 in Tukey post test; “++” indicates a p value <0.01 in Tukey post test", "details": "for IL-1β, significant reduction in culture supernatant vs LPS treatment / IL-6, significant reduction in culture supernatant vs LPS treatment / TNF-α, significant reduction in culture supernatant vs LPS treatment: 20 min pre-treatment, 24 hrs LPS", "method": "Differentiation with PMA causes THP-1 monocyte cells to acquire functional and morphological resemblance to macrophages. LPS interacts with THP-1 differentiated macrophage through the toll-like receptor 4, triggering the inflammatory response and stimulating pro-inflammatory cytokine release and eventually leading to cellular death. Compounds were tested to determine their anti-inflammatory effects on LPS-challenged macrophage cultures. THP-1-differentiated macrophages were treated with test compounds for 20 minutes, followed by 24 hrs of LPS challenge. Culture supernatants were then collected to analyzed for the presence of pro-inflammatory cytokines: […], interleukin 6 (IL-6) and tumor necrosis factor α (TNF-α).\nCytokine quantification in cell culture supernatants was accomplished by HTRF kits to assess levels of IL-1β (Human IL-1β kit, #62HIL1BPEG, Cisbio) and IL-6 (Human IL-6 kit, 62HIL06PET, Cisbio), and by ELISA to determine the levels of TNF-α (Human TNF-α ELISA kit, KHC3011, ThermoFisher).\nData analysis was performed via 1-way ANOVA with Tukey post-test compared to LPS treatment cultures using Prism statistical software (GraphPad). Tabular data indicates significance of reduction in culture supernatants for the indicated analyte at the indicated doses."}, "[6]": {"details": "2.5 mg/kg PO, Day 1, 1 h post-dose"}, "[7]": {"details": "2.5 mg/kg PO, Day 3, 1 h post-dose"}, "[8]": {"details": "2.5 mg/kg PO, Day 7, 1 h post-dose"}, "[9]": {"details": "10 mg/kg PO, Day 1, 1 h post-dose"}, "[10]": {"details": "10 mg/kg PO, Day 3, 1 h post-dose"}, "[11]": {"details": "10 mg/kg PO, Day 7, 1 h post-dose"}}}
{"compound": "CCC(C)CN1CC2N(Cc3ccc(OC(F)F)cc3)CCC(=O)N2[C@@H](C)C1=O", "note": "(some centres unmarked) [Compound 6a]", "values": [{"measurement": "IFN-γ expression in paw skin, change compared to CFA alone", "setting": "CFA-stimulated rats [1]; 2.5 mg/kg PO", "result": "NS"}, {"measurement": "IL-4 expression in paw skin, change compared to CFA alone", "setting": "CFA-stimulated rats [1]; 2.5 mg/kg PO", "result": "+ (+ = statistically significant change in expression compared to CFA alone, p < 0.05)"}, {"measurement": "TNF-α expression in paw skin, change compared to CFA alone", "setting": "CFA-stimulated rats [1]; 2.5 mg/kg PO", "result": "+ (+ = statistically significant change in expression compared to CFA alone, p < 0.05)"}, {"measurement": "IFN-γ expression in paw skin, change compared to CFA alone", "setting": "CFA-stimulated rats [1]; 10 mg/kg PO", "result": "NS"}, {"measurement": "IL-4 expression in paw skin, change compared to CFA alone", "setting": "CFA-stimulated rats [1]; 10 mg/kg PO", "result": "NS"}, {"measurement": "TNF-α expression in paw skin, change compared to CFA alone", "setting": "CFA-stimulated rats [1]; 10 mg/kg PO", "result": "NS"}, {"measurement": "IFN-γ expression in paw skin", "setting": "CFA-stimulated rats [1]; both tested doses", "result": "no effect"}, {"measurement": "Thermal Hyperalgesia, significant reduction in pain behavior vs CFA alone", "setting": "CFA-stimulated rats [2]; [6]", "result": "NS"}, {"measurement": "Thermal Hyperalgesia, significant reduction in pain behavior vs CFA alone", "setting": "CFA-stimulated rats [2]; [7]", "result": "NS"}, {"measurement": "Thermal Hyperalgesia, significant reduction in pain behavior vs CFA alone", "setting": "CFA-stimulated rats [2]; [8]", "result": "+ (+ = statistically significant change in sensitivity compared to CFA alone, p < 0.05)"}, {"measurement": "Thermal Hyperalgesia, significant reduction in pain behavior vs CFA alone", "setting": "CFA-stimulated rats [2]; [9]", "result": "NS"}, {"measurement": "Thermal Hyperalgesia, significant reduction in pain behavior vs CFA alone", "setting": "CFA-stimulated rats [2]; [10]", "result": "NS"}, {"measurement": "Thermal Hyperalgesia, significant reduction in pain behavior vs CFA alone", "setting": "CFA-stimulated rats [2]; [11]", "result": "+ (+ = statistically significant change in sensitivity compared to CFA alone, p < 0.05)"}, {"measurement": "study days on which thermal sensitivity was reduced", "setting": "CFA-stimulated rats [2]; PO, post-dose testing, any tested dose", "result": "study day 7"}, {"measurement": "PWL (paw withdrawal latency) vs CFA+vehicle", "setting": "CFA-stimulated rats [2]; day 7 at each dose, data not shown", "result": "statistically significant increase"}, {"measurement": "Mechanical Allodynia, significant reduction in pain behavior vs CFA alone", "setting": "CFA-stimulated rats [3]; [6]", "result": "NS"}, {"measurement": "Mechanical Allodynia, significant reduction in pain behavior vs CFA alone", "setting": "CFA-stimulated rats [3]; [7]", "result": "NS"}, {"measurement": "Mechanical Allodynia, significant reduction in pain behavior vs CFA alone", "setting": "CFA-stimulated rats [3]; [8]", "result": "NS"}, {"measurement": "Mechanical Allodynia, significant reduction in pain behavior vs CFA alone", "setting": "CFA-stimulated rats [3]; [9]", "result": "NS"}, {"measurement": "Mechanical Allodynia, significant reduction in pain behavior vs CFA alone", "setting": "CFA-stimulated rats [3]; [10]", "result": "NS"}, {"measurement": "Mechanical Allodynia, significant reduction in pain behavior vs CFA alone", "setting": "CFA-stimulated rats [3]; [11]", "result": "NS"}, {"measurement": "PWL (paw withdrawal latency)", "setting": "CFA-stimulated rats [4]", "result": "statistically significant increase"}, {"measurement": "IL-1β, significant reduction in culture supernatant vs LPS treatment", "setting": "[5]; 0.1 nM", "result": "NS"}, {"measurement": "IL-6, significant reduction in culture supernatant vs LPS treatment", "setting": "[5]; 0.1 nM", "result": "NS"}, {"measurement": "TNF-α, significant reduction in culture supernatant vs LPS treatment", "setting": "[5]; 0.1 nM", "result": "NS"}, {"measurement": "IL-1β, significant reduction in culture supernatant vs LPS treatment", "setting": "[5]; 10 nM", "result": "NS"}, {"measurement": "IL-6, significant reduction in culture supernatant vs LPS treatment", "setting": "[5]; 10 nM", "result": "NS"}, {"measurement": "TNF-α, significant reduction in culture supernatant vs LPS treatment", "setting": "[5]; 10 nM", "result": "NS"}, {"measurement": "IL-1β, significant reduction in culture supernatant vs LPS treatment", "setting": "[5]; 1000 nM", "result": "+ (“+” indicates a p value <0.05 in Tukey post test)"}, {"measurement": "IL-6, significant reduction in culture supernatant vs LPS treatment", "setting": "[5]; 1000 nM", "result": "NS"}, {"measurement": "TNF-α, significant reduction in culture supernatant vs LPS treatment", "setting": "[5]; 1000 nM", "result": "+ (“+” indicates a p value <0.05 in Tukey post test)"}, {"measurement": "expression of IL-1β and TNF-α", "setting": "[5]; at at least one tested dose", "result": "significantly reduced"}]}
